Experiments:
[1] = biological target: Replicase polyprotein 1ab (Severe acute respiratory syndrome coronavirus 2, UniProt P0DTD1); test: (§1) Inhibition of SARS CoV-2 main protease
[2] = biological target: Replicase polyprotein 1ab (Severe acute respiratory syndrome coronavirus 2) (UniProt P0DTD1); test: Inhibition of SARS CoV-2 main protease at 10 uM relative to control
[3] = Cytotoxicity against HEK293-A cells assessed as reduction in cell viability by CCK-8 assay; format: toxicity, cell-based; settings: human
SARS-CoV-2 [4] = test: Antiviral activity against SARS-CoV-2; format: functional, organism-based; settings: Severe acute respiratory syndrome coronavirus 2
[5] = biological target: Replicase polyprotein 1ab (Severe acute respiratory syndrome coronavirus 2) (UniProt P0DTD1); test: Inhibition of SARS CoV-2 main protease at 50 uM relative to control
[6] = biological target: Replicase polyprotein 1ab (Severe acute respiratory syndrome coronavirus 2) (UniProt P0DTD1); test: as §1
SARS-CoV-2 [7] = test: Antiviral activity against wild type SARS-CoV-2 infected in Vero E6 cells assessed as inhibition of viral induced cytopathic effect incubated for 72 hrs by MTT assay; format: functional, organism-based; settings: Severe acute respiratory syndrome coronavirus 2, Vero C1008, 72 h

Row | Compound | IC50 [1] [µM] | inhibition [2] [%] | also measured
1 | O=C(Nc1ccccc1)C1c2cccc[n+]2CC(=O)N1c1ccccc1 (centres undefined) | 5.2 | 84.3 | 
2 | Cc1ccc(N2C(=O)C[n+]3ccccc3C2C(=O)Nc2ccc(Cl)cc2)cc1Br (centres undefined) | 4.5 | 78.2 | CC50 [3]: > 300 µM
3 | CCOc1ccc(NC(=O)C2c3cccc[n+]3CC(=O)N2c2ccccc2)cc1 (centres undefined) | 5 | 80.4 | 
4 | Cc1cccc(C)c1NC(=O)C1c2cccc[n+]2CC(=O)N1c1ccc(Cl)cc1 (centres undefined) |  | 50.1 | 
5 | O=C[C@H](C[C@@H]1CCNC1=O)NC(=O)[C@H](Cc1cccc(F)c1)NC(=O)c1cc2ccccc2[nH]1 |  |  | EC50 (SARS-CoV-2 [4]): 0.72 µM
6 | Cc1ccccc1NC(=O)C1c2cccc[n+]2CC(=O)N1C (centres undefined) | 4 | 75.3 | CC50 [3]: > 300 µM
7 | COc1ccccc1N1C(=O)C[n+]2ccccc2C1C(=O)Nc1c(C)cccc1C (centres undefined) |  | < 20 | 
8 | Cc1cc(C)cc(N2C(=O)C[n+]3ccccc3C2C(=O)Nc2ccccc2C)c1 (centres undefined) |  | 66.6 | 
9 | O=C(Nc1ccc(Cl)cc1)C1c2cccc[n+]2CC(=O)N1c1ccc(Cl)cc1 (centres undefined) | 9.6 | 75.7 | 
10 | CCCN1C(=O)C[n+]2ccccc2C1C(=O)Nc1c(C)cccc1C (centres undefined) |  | < 20 | 
11 | O=C1C2C3C=CC(CO)(O3)C2C(=O)N1c1cc(C(F)(F)F)ccc1Cl (centres undefined) | 4.4 |  | inhibition [5]: > 50%; inhibition [6]: Dose-Dependent Effect
12 | CCOc1ccc(NC(=O)C2c3cccc[n+]3CC(=O)N2c2ccc(OCC)cc2)cc1 (centres undefined) |  | 21.7 | 
13 | Cc1cccc(N2C(=O)C[n+]3ccccc3C2C(=O)Nc2ccccc2)c1 (centres undefined) | 6.1 | 80.5 | inhibition [5]: > 50%; inhibition [6]: Dose-Dependent Effect
14 | O=C(Nc1ccc(Cl)cc1)C1c2cccc[n+]2CC(=O)N1c1ccc(Br)cc1 (centres undefined) | 8.5 | 82.2 | 
15 | Cc1cccc(C)c1NC(=O)C1(C)c2cccc[n+]2CC(=O)N1c1ccc(Cl)cc1 (centres undefined) |  | 32.1 | 
16 | Cc1ccc(N2C(=O)C[n+]3ccccc3C2C(=O)Nc2c(C)cccc2C)cc1Cl (centres undefined) |  | < 20 | 
17 | Cc1cccc(C)c1NC(=O)C1c2cccc[n+]2CC(=O)N1CCO (centres undefined) |  | < 20 | 
18 | O=C(Nc1ccc(Cl)cc1)C1c2cccc[n+]2CC(=O)N1c1cccc(Cl)c1 (centres undefined) | 5.1 | 84.5 | 
19 | C=CCN1C(=O)C[n+]2ccccc2C1C(=O)Nc1c(C)cccc1C (centres undefined) |  | < 20 | 
20 | COc1ccc(N2C(=O)C[n+]3ccccc3C2C(=O)Nc2ccc(Cl)cc2)cc1 (centres undefined) |  | 57.7 | 
21 | O=C(NC1CCCC1)C(=O)[C@H](CC1CCNC1=O)NC(=O)[C@@H]1[C@H]2CCC[C@H]2CN1C(=O)[C@@H](NC(=O)C(F)(F)F)C1CCCCC1 (some centres undefined) |  |  | EC50 (SARS-CoV-2 [7]): 0.095 µM

Row | Compound | IC50 [1] [µM] | inhibition [2] [%] | also measured
22 | CC1(C(=O)Nc2ccc(Cl)cc2)c2cccc[n+]2CC(=O)N1c1ccc(Cl)cc1 (centres undefined) |  | < 20 | 
23 | CCN1C(=O)C[n+]2ccccc2C1C(=O)Nc1c(C)cccc1C (centres undefined) |  | < 20 | 
24 | Cc1ccccc1N1C(=O)C[n+]2ccccc2C1C(=O)Nc1ccccc1 (centres undefined) | 5.6 | 78.7 | 
25 | CC(C)(C)C(=O)N[C@H](C(=O)N1CC2(C[C@H]1C(=O)N[C@H](C#N)C[C@@H]1CCNC1=O)SCCS2)C(C)(C)C | 0.022 |  | EC50 (SARS-CoV-2 [4]): 0.57 µM
26 | Cc1ccc(N2C(=O)C[n+]3ccccc3C2(C)C(=O)Nc2ccc(Cl)cc2)cc1 (centres undefined) |  | < 20 | 
27 | Cc1ccc(N2C(=O)C[n+]3ccccc3C2C(=O)Nc2ccccc2C)cc1 (centres undefined) | 6.1 | 83 | 
28 | Cc1cccc(C)c1NC(=O)C1c2cccc[n+]2CC(=O)N1C (centres undefined) | 8.3 | 85.8 | 
29 | CCc1cccc(C)c1N1C(=O)C[n+]2ccccc2C1C(=O)Nc1ccccc1C (centres undefined) |  | < 20 | 
30 | COc1ccc(NC(=O)C2c3cccc[n+]3CC(=O)N2c2ccccc2O)cc1 (centres undefined) |  | 26.5 | 
31 | Cc1cccc(C)c1NC(=O)C1c2cccc[n+]2CC(=O)N1c1cccc(C(F)(F)F)c1 (centres undefined) |  | < 20 | 
32 | Cc1ccccc1NC(=O)C1c2cccc[n+]2CC(=O)N1c1c(C)cccc1C (centres undefined) |  | < 20 | 
33 | Cc1cc(C)cc(N2C(=O)C[n+]3ccccc3C2C(=O)Nc2ccc(Cl)cc2)c1 (centres undefined) | 8.8 | 75.7 | 
34 | O=C(Nc1ccc(Cl)cc1)C1c2cccc[n+]2CC(=O)N1Cc1ccc2c(c1)OCO2 (centres undefined) | 6.9 | 72.5 | CC50 [3]: > 300 µM
35 | Cc1cccc(C)c1NC(=O)C1c2cccc[n+]2CC(=O)N1Cc1ccc2c(c1)OCO2 (centres undefined) |  | < 20 | 
36 | CN1C(=O)C[n+]2ccccc2C1C(=O)Nc1ccccc1 (centres undefined) | 8.9 | 93.3 | 
37 | Cc1cccc(C)c1NC(=O)C1c2cccc[n+]2CC(=O)N1c1cccc(Cl)c1 (centres undefined) |  | 31 | 
38 | CCOc1ccc(N2C(=O)C[n+]3ccccc3C2C(=O)Nc2ccc(Cl)cc2)cc1 (centres undefined) |  | 47.2 | 
39 | CCOc1ccc(NC(=O)C2c3cccc[n+]3CC(=O)N2c2ccc(OC)cc2)cc1 (centres undefined) |  | 30 | 
40 | Cc1cccc(C)c1NC(=O)C1c2cccc[n+]2CC(=O)N1c1ccc2c(c1)OCO2 (centres undefined) |  | < 20 | 
41 | O=C(Nc1ccccc1)C1c2cccc[n+]2CC(=O)N1c1ccc(Br)cc1 (centres undefined) | 8.6 | 71.3 | 
